Measurements: US11000033B2, “Ketone or oxime compound, and herbicide” (NISSAN CHEMICAL CORPORATION, priority 2014, dated 2021)

Tests used:
Assay type in all cases: in vivo
corn = assay: Test Example 5: effect on crop by foliage application, plastic box (symbol c); settings: 320 g/ha, 3 weeks after application
Method in brief: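 A greenhouse held between 25° C. and 30° C. was used to grow plants sown spot-wise, beneath ~1.5 cm of soil, in boxes of sterilized diluvial soil.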

Digitaria ciliaris = assay: Test Example 4: herbicidal effect by soil treatment (symbol F); settings: for F: Digitaria ciliaris, herbicidal effect grade: 320 g/ha
Method in brief: (§1)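 Seeds were sown in sterilized diluvial soil, covered with about 1.5 cm of soil, and the soil surface was sprayed with a water-diluted emulsion of the compound at a predetermined rate. Plants grew in a greenhouse at 25° C. to 30° C.; effects were scored visually 3 weeks after application.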

Galium spurium = assay: Test Example 4: herbicidal effect by soil treatment (symbol Q)
Method in brief: as §1

[1] = system: Echinochloa crus-galli var. crus-galli; assay: Test Example 3: herbicidal effect by foliage application, Wagner pot (symbol H); settings: application herbicide amount 320 g/ha
Method in brief: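 Seeds sown in alluvial soil kept under 0.1–0.5 cm water, greenhouse 25–30 °C; 14 d growth. Leaves treated by small sprayer with water-diluted emulsion at a predetermined rate. Effect graded by set scale, 3 weeks.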

Apera spica-venti = assay: Test Example 5: herbicidal effect by foliage application, plastic box (symbol L); settings: 320 g/ha, 3 weeks after application
Method in brief: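 Herbicide, formulated as an emulsion and diluted in water, is sprayed onto the aerial parts of 14-day seedlings. These were grown at 25° C. to 30° C. in sterilized diluvial soil; effects are graded after 3 weeks.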

Chenopodium album = assay: Test Example 4: herbicidal effect by soil treatment (symbol O); settings: 320 g/ha
Method in brief: as §1

[2] = application herbicide amount 320 g/ha

Row | Structure (SMILES) | c: corn, effect on crop (criteria 0-5) (corn) | F: Digitaria ciliaris, herbicidal effect grade (Digitaria ciliaris) | Q: Galium spurium, herbicidal effect grade (Galium spurium; 320 g/ha) | herbicidal effect on H (Echinochloa crus-galli var. crus-galli), grade 0-5 [1] | L: Apera spica-venti, herbicidal effect (criteria 0-5) (Apera spica-venti) | c: corn, effect on crop grade (corn) | F (Digitaria ciliaris) herbicidal effect grade (Digitaria ciliaris; [2]) | Q (Galium spurium) herbicidal effect grade (Galium spurium; [2]) | L: Apera spica-venti, herbicidal effect grade (Apera spica-venti) | c: corn, effect on crop (criteria of Test Example 1) (corn) | Herbicidal effect grade, F: Digitaria ciliaris (Digitaria ciliaris; [2]) | Herbicidal effect grade, Q: Galium spurium (Galium spurium; [2]) | L: Apera spica-venti, herbicidal effect (criteria of Test Example 1) (Apera spica-venti) | O: Chenopodium album, herbicidal effect grade (Chenopodium album)
1 | CON=C(C)CC1CC(OC(=O)C=Cc2ccco2)=C(c2c(C)cc(C)cc2C)C1=O (centres unmarked) [1-091] | 5 (Herbicidal ratio of 90% or more (almost completely withered)) | 5 (Herbicidal ratio of 90% or more (almost completely withered)) | 0 (Herbicidal ratio of 5% or lower (almost no effect)) | 5 (Herbicidal ratio of 90% or more (almost completely withered)) | 5 (Herbicidal ratio of 90% or more (almost completely withered)) | – | – | – | – | – | – | – | – | –
2 | CC(CC1CC(O)=C(c2c(C)cc(C)cc2C)C1=O)=NOCC1CC1 (centres unmarked) [1-024] | – | – | – | 5 (Herbicidal ratio of 90% or more (almost completely withered)) | – | 5 (Herbicidal ratio of 90% or more (almost completely withered)) | 5 (Herbicidal ratio of 90% or more (almost completely withered)) | 0 (Herbicidal ratio of 5% or lower (almost no effect)) | 5 (Herbicidal ratio of 90% or more (almost completely withered)) | – | – | – | – | –
3 | CC(=O)CC1CC(O)=C(c2c(C)cc(Oc3ccccc3)cc2C)C1=O (centres unmarked) [7-014] | – | – | – | 4 (Herbicidal ratio of 70% or higher and lower than 90%) | – | – | – | – | – | 3 (Herbicidal ratio of 40% or higher and lower than 70%) | 3 (Herbicidal ratio of 40% or higher and lower than 70%) | 0 (Herbicidal ratio of 5% or lower (almost no effect)) | 0 (Herbicidal ratio of 5% or lower (almost no effect)) | –
4 | CON=C(C)CC1CC(OC(=O)COc2ccccc2)=C(c2c(C)cc(C)cc2C)C1=O (centres unmarked) [1-043] | – | – | – | 5 (Herbicidal ratio of 90% or more (almost completely withered)) | – | 5 (Herbicidal ratio of 90% or more (almost completely withered)) | 5 (Herbicidal ratio of 90% or more (almost completely withered)) | 0 (Herbicidal ratio of 5% or lower (almost no effect)) | 5 (Herbicidal ratio of 90% or more (almost completely withered)) | – | – | – | – | –
5 | CC(CC1CC(O)=C(c2c(C)cc(C)cc2C)C1=O)=NOCC(C)O (centres unmarked) [1-027] | – | – | – | 5 (Herbicidal ratio of 90% or more (almost completely withered)) | – | 5 (Herbicidal ratio of 90% or more (almost completely withered)) | 5 (Herbicidal ratio of 90% or more (almost completely withered)) | 0 (Herbicidal ratio of 5% or lower (almost no effect)) | 5 (Herbicidal ratio of 90% or more (almost completely withered)) | – | – | – | – | –
6 | CON=C(C)CC1CC(OC(=O)COc2ccc(C)cc2)=C(c2c(C)cc(C)cc2C)C1=O (centres unmarked) [1-072] | – | – | – | 4 (Herbicidal ratio of 70% or higher and lower than 90%) | – | 5 (Herbicidal ratio of 90% or more (almost completely withered)) | 5 (Herbicidal ratio of 90% or more (almost completely withered)) | 0 (Herbicidal ratio of 5% or lower (almost no effect)) | 5 (Herbicidal ratio of 90% or more (almost completely withered)) | – | – | – | – | –
7 | CON=C(C)C(c1ccc(F)cc1)C1CC(O)=C(c2c(C)cc(C)cc2C)C1=O (centres unmarked) [1-049] | – | – | – | 0 (Herbicidal ratio of 5% or lower (almost no effect)) | – | 0 (Herbicidal ratio of 5% or lower (almost no effect)) | 0 (Herbicidal ratio of 5% or lower (almost no effect)) | 0 (Herbicidal ratio of 5% or lower (almost no effect)) | 0 (Herbicidal ratio of 5% or lower (almost no effect)) | – | – | – | – | –
8 | CON=C(C)CC1CC(OC(=O)COc2cccc(OC)c2)=C(c2c(C)cc(C)cc2C)C1=O (centres unmarked) [1-068] | – | – | – | 5 (Herbicidal ratio of 90% or more (almost completely withered)) | – | 5 (Herbicidal ratio of 90% or more (almost completely withered)) | 5 (Herbicidal ratio of 90% or more (almost completely withered)) | 0 (Herbicidal ratio of 5% or lower (almost no effect)) | 5 (Herbicidal ratio of 90% or more (almost completely withered)) | – | – | – | – | –
9 | CC(CC1CC(O)=C(c2c(C)cc(C)cc2C)C1=O)=NOCc1ccccc1F (centres unmarked) [1-026] | – | – | – | 5 (Herbicidal ratio of 90% or more (almost completely withered)) | – | 3 (Herbicidal ratio of 40% or higher and lower than 70%) | 5 (Herbicidal ratio of 90% or more (almost completely withered)) | 0 (Herbicidal ratio of 5% or lower (almost no effect)) | 5 (Herbicidal ratio of 90% or more (almost completely withered)) | – | – | – | – | –
10 | CC(CC1CC(O)=C(c2c(C)cc(C)cc2C)C1=O)=NOCC(=O)N1CCOCC1 (centres unmarked) [1-025] | – | – | – | 5 (Herbicidal ratio of 90% or more (almost completely withered)) | – | 3 (Herbicidal ratio of 40% or higher and lower than 70%) | 5 (Herbicidal ratio of 90% or more (almost completely withered)) | 0 (Herbicidal ratio of 5% or lower (almost no effect)) | 5 (Herbicidal ratio of 90% or more (almost completely withered)) | – | – | – | – | –
11 | CON=C(C)CC1CC(OCC#C[Si](C)(C)C)=C(c2c(C)cc(C)cc2C)C1=O (centres unmarked) [1-031] | – | – | – | 3 (Herbicidal ratio of 40% or higher and lower than 70%) | – | 0 (Herbicidal ratio of 5% or lower (almost no effect)) | 0 (Herbicidal ratio of 5% or lower (almost no effect)) | 0 (Herbicidal ratio of 5% or lower (almost no effect)) | 0 (Herbicidal ratio of 5% or lower (almost no effect)) | – | – | – | – | –
12 | CON=C(C)CC1CC(OC(=O)CCC2CCCCC2)=C(c2c(C)cc(C)cc2C)C1=O (centres unmarked) [1-035] | – | – | – | 5 (Herbicidal ratio of 90% or more (almost completely withered)) | – | 4 (Herbicidal ratio of 70% or higher and lower than 90%) | 5 (Herbicidal ratio of 90% or more (almost completely withered)) | 0 (Herbicidal ratio of 5% or lower (almost no effect)) | 5 (Herbicidal ratio of 90% or more (almost completely withered)) | – | – | – | – | –
13 | CON=C(C)CC1CC(OC(=O)C2=C(Br)CCC2)=C(c2c(C)cc(C)cc2C)C1=O (centres unmarked) [1-089] | 5 (Herbicidal ratio of 90% or more (almost completely withered)) | 5 (Herbicidal ratio of 90% or more (almost completely withered)) | – | 5 (Herbicidal ratio of 90% or more (almost completely withered)) | 5 (Herbicidal ratio of 90% or more (almost completely withered)) | – | – | – | – | – | – | – | – | 0 (Herbicidal ratio of 5% or lower (almost no effect))
14 | CON=C(C)CC1CC(OC(=O)COc2ccc3ccccc3c2)=C(c2c(C)cc(C)cc2C)C1=O (centres unmarked) [1-083] | 5 (Herbicidal ratio of 90% or more (almost completely withered)) | 5 (Herbicidal ratio of 90% or more (almost completely withered)) | – | 5 (Herbicidal ratio of 90% or more (almost completely withered)) | 5 (Herbicidal ratio of 90% or more (almost completely withered)) | – | – | – | – | – | – | – | – | 0 (Herbicidal ratio of 5% or lower (almost no effect))
15 | C=CC(CC1CC(O)=C(c2c(C)cc(C)cc2C)C1=O)=NOC (centres unmarked) [1-086] | 3 (Herbicidal ratio of 40% or higher and lower than 70%) | 2 (Herbicidal ratio of 20% or higher and lower than 40%) | – | 5 (Herbicidal ratio of 90% or more (almost completely withered)) | 4 (Herbicidal ratio of 70% or higher and lower than 90%) | – | – | – | – | – | – | – | – | 0 (Herbicidal ratio of 5% or lower (almost no effect))
16 | CON=C(C)CC1CC(OC(=O)C2=CCCC2)=C(c2c(C)cc(C)cc2C)C1=O (centres unmarked) [1-088] | 5 (Herbicidal ratio of 90% or more (almost completely withered)) | 5 (Herbicidal ratio of 90% or more (almost completely withered)) | – | 5 (Herbicidal ratio of 90% or more (almost completely withered)) | 5 (Herbicidal ratio of 90% or more (almost completely withered)) | – | – | – | – | – | – | – | – | 0 (Herbicidal ratio of 5% or lower (almost no effect))
